Data from the supplement of paper PMC11061612.

Tests used:
Assay in all cases: Bliss excess, mean over the matrix (fraction); higher = more synergy
[1] = tested on: COLO-678 (Colorectal Carcinoma)
How it was run: (§1)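 Cell lines in DMEM/F12 or RPMI with 10% FBS were plated in 1536-well plates, held 24 hours at 37°C, 5% CO2, then given two-drug dose matrices for 72 hours (DMSO typically 0.2%). Viability was read by CellTiter-Glo 2.0 luminescence and scaled as inhibition from 0 (vehicle wells) to 1 (blank wells). Combination Emax is the second-highest inhibition in the matrix; Bliss excess is observed combination effect minus expected EA + EB − EA·EB, EA and EB being single-agent effects.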

[2] = tested on: PANC-08-13 (Pancreatic Carcinoma)
How it was run: as §1

[3] = tested on: U251 (Low Grade Glioma)
How it was run: as §1

[4] = tested on: SW837 (Colorectal Carcinoma)
How it was run: as §1

[5] = tested on: HDQ-P1 (Breast Carcinoma)
How it was run: as §1

[6] = tested on: K-562 (Chronic Myelogenous Leukemia)
How it was run: as §1

[7] = tested on: L-540 (Hodgkin's Lymphoma)
How it was run: as §1

[8] = tested on: TOV-112D (Ovarian Carcinoma)
How it was run: as §1

[9] = tested on: NCI-H1792 (Lung Adenocarcinoma)
How it was run: as §1

[10] = tested on: DiFi (Colorectal Carcinoma)
How it was run: as §1

[11] = tested on: EVSA-T (Breast Carcinoma)
How it was run: as §1

[12] = tested on: SR (Other Blood Carcinomas)
How it was run: as §1

[13] = tested on: KCL-22 (Chronic Myelogenous Leukemia)
How it was run: as §1

[14] = tested on: KYSE-180 (Esophageal Squamous Cell Carcinoma)
How it was run: as §1

[15] = tested on: TE-6 (Esophageal Squamous Cell Carcinoma)
How it was run: as §1

[16] = tested on: TC-71 (Ewing's Sarcoma)
How it was run: as §1

[17] = tested on: LN-18 (Glioblastoma)
How it was run: as §1

[18] = tested on: DND-41 (T-Lymphoblastic Leukemia)
How it was run: as §1

[19] = tested on: MFM-223 (Breast Carcinoma)
How it was run: as §1

Structure (SMILES)	Bliss excess [1]	Bliss excess [2]	Bliss excess [3]	Bliss excess [4]	Bliss excess [5]	Bliss excess [6]	Bliss excess [7]	Bliss excess [8]	Bliss excess [9]	Bliss excess [10]	Bliss excess [11]	Bliss excess [12]	Bliss excess [13]	Bliss excess [14]	Bliss excess [15]	Bliss excess [16]	Bliss excess [17]	Bliss excess [18]	Bliss excess [19]
CCN(CCO)CCCOc1ccc2c(Nc3cc(CC(=O)Nc4cccc(F)c4)[nH]n3)ncnc2c1 [AZD2811] + C=CCn1c(=O)c2cnc(Nc3ccc(N4CCN(C)CC4)cc3)nc2n1-c1cccc(C(C)(C)O)n1 [AZD1775] (first compound max 1 µM, partner max 1 µM)	-0.0002	-0.0319	-0.0117	0.0033	-0.0186	0.0526	0.0772	0.105	-0.0328	0.0322	-0.0073	-0.0146	0.0162	0.0089	-0.0367	0.0744	0.0214	0.0198	0.0277
Cc1cc2ncnn2cc1Nc1ncc2c(n1)n(C1CCOCC1)c(=O)n2C [AZD7648] + C[C@@H]1COCCN1C2=NC(=NC(=C2)C3(CC3)[S@](=N)(=O)C)C4=C5C=CNC5=NC=C4 [AZD6738] (first compound max 10 µM, 7x7, partner max 10 µM)	-0.0346	0.0227	0.0581	-0.0077	-0.0229	-0.0096	-0.0031	0.0024	-0.0047	0.0639	0.0622	0.0148	0.0341	0.0394	0.0697	0.041	-0.0084	-0.01	-0.0127
C[C@@H]1COCCN1c1cc(C2([S@](C)(=N)=O)CC2)nc(-c2ccnc3[nH]ccc23)n1 [AZD6738] + O=C(c1cc(Cc2n[nH]c(=O)c3ccccc23)ccc1F)N1CCN(C(=O)C2CC2)CC1 [Olaparib] (first compound max 10 µM, 7x7, partner max 10 µM)	-0.0046	0.0021	0.056	0.0093	0.0155	-0.0646	-0.022	0.0206	0.0178	0.0033	0.0017	0.024	-0.0454	0.0762	-0.0172	-0.0726	0.0598	-0.0128	0.0074
Cc1cc2ncnn2cc1Nc1ncc2c(n1)n(C1CCOCC1)c(=O)n2C [AZD7648] + O=C(c1cc(Cc2n[nH]c(=O)c3ccccc23)ccc1F)N1CCN(C(=O)C2CC2)CC1 [Olaparib] (first compound max 10 µM, 7x7, partner max 10 µM)	-0.0177	-0.0538	0.0043	-0.0246	0.0133	0.0107	-0.0352	-0.0285	-0.033	-0.0484	-0.0077	0.0433	-0.0367	-0.0406	-0.0419	-0.0106	-0.0351	0.0069	-0.0131
COc1cccc(OCCCN)c1-c1cc(Nc2cnc(C#N)cn2)n[nH]1 [Prexasertib] + C=CCn1c(=O)c2cnc(Nc3ccc(N4CCN(C)CC4)cc3)nc2n1-c1cccc(C(C)(C)O)n1 [AZD1775] (first compound max 1 µM, partner max 1 µM)	-0.0079	-0.0174	0.0943	0.073	0.0861	0.0497	-0.0185	0.137	0.0638	0.0236	0.0197	-0.014	0.088	0.132	0.0995	0.0949	0.042	-0.0247	0.0825
C=CCn1c(=O)c2cnc(Nc3ccc(N4CCN(C)CC4)cc3)nc2n1-c1cccc(C(C)(C)O)n1 [AZD1775] + O=C(c1cc(Cc2n[nH]c(=O)c3ccccc23)ccc1F)N1CCN(C(=O)C2CC2)CC1 [Olaparib] (first compound max 1 µM, partner max 10 µM)	-0.012	-0.0095	-0.0154	-0.0125	-0.0441	-0.0678	-0.045	-0.0139	-0.0261	-0.0145	0.0622	0.0597	-0.0415	0.0253	-0.0297	-0.0626	-0.037	-0.0025	-0.0421
Cc1cc2ncnn2cc1Nc1ncc2c(n1)n(C1CCOCC1)c(=O)n2C [AZD7648] + C=CCn1c(=O)c2cnc(Nc3ccc(N4CCN(C)CC4)cc3)nc2n1-c1cccc(C(C)(C)O)n1 [AZD1775] (first compound max 10 µM, partner max 1 µM)	-0.0224	-0.0266	-0.014	0.0241	-0.0805	0.0017	0.0106	-0.0325	-0.0274	-0.0013	-0.024	-0.0375	0.0015	0.0302	-0.07	0.055	0.0161	-0.0109	-0.0357
CCN(CCO)CCCOc1ccc2c(Nc3cc(CC(=O)Nc4cccc(F)c4)[nH]n3)ncnc2c1 [AZD2811] + C[C@@H]1COCCN1C2=NC(=NC(=C2)C3(CC3)[S@](=N)(=O)C)C4=C5C=CNC5=NC=C4 [AZD6738] (first compound max 1 µM, 7x7, partner max 10 µM)	-0.0034	-0.0312	-0.0255	-0.0252	-0.0597	-0.0494	-0.0078	0.0433	-0.0577	-0.0331	-0.0263	-0.0533	0.0285	-0.0184	-0.0175	-0.0335	-0.0151	-0.018	-0.0251
CCc1c2c(nc3ccc(O)cc13)-c1cc3c(c(=O)n1C2)COC(=O)[C@]3(O)CC [SN-38] + O=C(c1cc(Cc2n[nH]c(=O)c3ccccc23)ccc1F)N1CCN(C(=O)C2CC2)CC1 [Olaparib] (first compound max 0.3 µM, 7x7, partner max 10 µM)	0.0487	-0.0202		0.0302	0.025	0.0222	0.0196	0.0453	0.0361	0.0423	0.0738	0.0614	0.0525	0.0458				0.0343	0.0054
Cc1cc2ncnn2cc1Nc1ncc2c(n1)n(C1CCOCC1)c(=O)n2C [AZD7648] + CN(C)CCCOc1ccc(-c2ccc3ncc4c(c3c2)n(C2CCOCC2)c(=O)n4C)cn1 [AZD0156] (first compound max 10 µM, 7x7, partner max 1 µM)	-0.0231	-0.0359	0.0214	0.0255	0.0157	-0.0026	-0.0074	0.0307	0.0149	-0.0119	-0.0126	0.0078	0.0542	0.0126	-0.0515	0.0438	0.0013	0.0251	-0.0325
Cc1cc2ncnn2cc1Nc1ncc2c(n1)n(C1CCOCC1)c(=O)n2C [AZD7648] + CCN(CCO)CCCOc1ccc2c(Nc3cc(CC(=O)Nc4cccc(F)c4)[nH]n3)ncnc2c1 [AZD2811] (first compound max 10 µM, 7x7, partner max 1 µM)	-0.0119	0.0006	-0.0046	0.0018	-0.0154	0.0127	0.048	0.0263	0.0321	0.005	0.0122	-0.0225	0.115	0.0029	0.0257	-0.0301	0.0208	0.0308	0.0257
COc1cccc(OCCCN)c1-c1cc(Nc2cnc(C#N)cn2)n[nH]1 [Prexasertib] + CN(C)CCCOc1ccc(-c2ccc3ncc4c(c3c2)n(C2CCOCC2)c(=O)n4C)cn1 [AZD0156] (first compound max 1 µM, 7x7, partner max 1 µM)	-0.036	-0.027	-0.0092	-0.0022	0.023	-0.0217	0.0019	0.0332	-0.0104	-0.0503	-0.0133	-0.0266	-0.0021	0.0022	-0.0081	0.026	0.0304	-0.101	-0.0028
CN(C)CCCOc1ccc(-c2ccc3ncc4c(c3c2)n(C2CCOCC2)c(=O)n4C)cn1 [AZD0156] + CCN(CCO)CCCOc1ccc2c(Nc3cc(CC(=O)Nc4cccc(F)c4)[nH]n3)ncnc2c1 [AZD2811] (first compound max 1 µM, 7x7, partner max 1 µM)	-0.0179	-0.0461	0.0131	-0.0263	-0.0634	-0.0011	0.0074	-0.0025	-0.0032	-0.0363	0.0104	-0.0666	0.0703	-0.0153	0.0127	0.0495	0.0009	0.0072	0.0113
CN(C)CCCOc1ccc(-c2ccc3ncc4c(c3c2)n(C2CCOCC2)c(=O)n4C)cn1 [AZD0156] + C[C@@H]1COCCN1C2=NC(=NC(=C2)C3(CC3)[S@](=N)(=O)C)C4=C5C=CNC5=NC=C4 [AZD6738] (first compound max 1 µM, 7x7, partner max 10 µM)	-0.0169	-0.0376	-0.0087	0.0071	0.0214	-0.0079	-0.0163	0.0136	0.0254	0.0174	0.0081	0.015	0.0274	0.0762	0.0225	0.069	0.0505	-0.0034	0.0432
COc1cc2c(cc1OCCCCCOc1cc3c(cc1OC)C(=O)N1C=C(C)C[C@H]1C=N3)N=C[C@@H]1CC(C)=CN1C2=O [SG3199] + O=C(c1cc(Cc2n[nH]c(=O)c3ccccc23)ccc1F)N1CCN(C(=O)C2CC2)CC1 [Olaparib] (first compound max 0.001 µM, 7x7, partner max 10 µM)	-0.0144	-0.0319	-0.0016	-0.0384	-0.035	-0.0041	-0.0272	-0.0167	-0.0479	-0.0495	-0.0094	0.0238	-0.0049	-0.0177	-0.0256	-0.0224	-0.0119	-0.0067	-0.0307
CN(C)CCCOc1ccc(-c2ccc3ncc4c(c3c2)n(C2CCOCC2)c(=O)n4C)cn1 [AZD0156] + C=CCn1c(=O)c2cnc(Nc3ccc(N4CCN(C)CC4)cc3)nc2n1-c1cccc(C(C)(C)O)n1 [AZD1775] (first compound max 1 µM, partner max 1 µM)	-0.0197	-0.0586	0.005	-0.0431	0.0118	-0.0269	0.0604	0.0039	-0.0041	-0.0013	-0.0618	-0.0509	-0.0326	-0.0451	-0.045	0.0685	-0.0307	-0.0029	-0.0282
